3 molecules from article PMC5519559, “Structure-Based Discovery of Small Molecule Inhibitors of Cariogenic Virulence” (Scientific Reports, 2017) can be followed below.

Assay [1] concerns the target T1, GtfC (Streptococcus mutans, UniProt P13470). The assay is described as follows: SDS-PAGE in-gel zymographic glucan-production assay at […]. It counts as cell-based. More on the design: native GtfC from culture supernatant of S. mutans GtfBD double mutant. The following applies: read-out: % inhibition at 25 μM.
Target sequence in this assay (P13470 35-1455): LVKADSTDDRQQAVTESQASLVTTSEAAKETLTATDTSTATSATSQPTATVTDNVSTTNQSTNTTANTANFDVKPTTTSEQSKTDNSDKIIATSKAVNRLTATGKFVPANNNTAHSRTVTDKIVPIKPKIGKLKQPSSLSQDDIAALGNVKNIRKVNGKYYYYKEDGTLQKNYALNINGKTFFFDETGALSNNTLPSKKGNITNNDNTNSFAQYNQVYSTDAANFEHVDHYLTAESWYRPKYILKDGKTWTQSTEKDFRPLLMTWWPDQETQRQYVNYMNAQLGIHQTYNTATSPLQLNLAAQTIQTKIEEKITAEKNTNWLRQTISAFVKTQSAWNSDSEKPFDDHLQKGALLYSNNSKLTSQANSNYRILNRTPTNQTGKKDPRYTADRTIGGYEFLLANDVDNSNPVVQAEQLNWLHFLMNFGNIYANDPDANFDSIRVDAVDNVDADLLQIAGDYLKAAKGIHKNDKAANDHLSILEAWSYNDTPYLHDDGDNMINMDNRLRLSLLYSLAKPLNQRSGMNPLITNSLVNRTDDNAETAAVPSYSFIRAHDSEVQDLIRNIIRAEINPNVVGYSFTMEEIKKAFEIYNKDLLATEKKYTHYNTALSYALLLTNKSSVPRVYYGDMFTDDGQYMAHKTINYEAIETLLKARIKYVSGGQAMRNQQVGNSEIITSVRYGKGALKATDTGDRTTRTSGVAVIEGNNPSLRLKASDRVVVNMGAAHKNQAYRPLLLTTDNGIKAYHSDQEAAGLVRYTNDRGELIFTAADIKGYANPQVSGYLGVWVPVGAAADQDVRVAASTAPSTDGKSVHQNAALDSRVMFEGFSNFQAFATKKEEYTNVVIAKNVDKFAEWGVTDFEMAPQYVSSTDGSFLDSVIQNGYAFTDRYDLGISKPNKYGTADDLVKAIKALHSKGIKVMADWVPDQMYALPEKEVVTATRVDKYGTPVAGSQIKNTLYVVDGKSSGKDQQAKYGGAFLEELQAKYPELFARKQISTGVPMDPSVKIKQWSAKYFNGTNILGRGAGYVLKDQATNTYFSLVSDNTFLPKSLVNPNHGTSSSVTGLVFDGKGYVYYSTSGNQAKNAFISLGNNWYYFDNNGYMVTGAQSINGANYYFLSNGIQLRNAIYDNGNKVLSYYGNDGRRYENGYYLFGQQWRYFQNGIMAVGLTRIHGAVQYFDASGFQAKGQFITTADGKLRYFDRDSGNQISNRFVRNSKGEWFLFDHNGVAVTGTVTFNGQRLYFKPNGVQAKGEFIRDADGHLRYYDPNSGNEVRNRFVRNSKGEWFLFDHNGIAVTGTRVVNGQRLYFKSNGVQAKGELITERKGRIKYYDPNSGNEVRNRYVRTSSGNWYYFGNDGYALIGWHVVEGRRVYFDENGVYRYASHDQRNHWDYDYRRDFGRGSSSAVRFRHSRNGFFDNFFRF
Assay [2] has as its target T2, GtfB (Streptococcus mutans, UniProt P08987). The assay is described as above. In kind it is cell-based. More on the design: native GtfB from culture supernatant of S. mutans GtfCD double mutant. The conditions noted are these: read-out: % inhibition at 25 μM.
Target sequence in this assay (P08987 35-1476): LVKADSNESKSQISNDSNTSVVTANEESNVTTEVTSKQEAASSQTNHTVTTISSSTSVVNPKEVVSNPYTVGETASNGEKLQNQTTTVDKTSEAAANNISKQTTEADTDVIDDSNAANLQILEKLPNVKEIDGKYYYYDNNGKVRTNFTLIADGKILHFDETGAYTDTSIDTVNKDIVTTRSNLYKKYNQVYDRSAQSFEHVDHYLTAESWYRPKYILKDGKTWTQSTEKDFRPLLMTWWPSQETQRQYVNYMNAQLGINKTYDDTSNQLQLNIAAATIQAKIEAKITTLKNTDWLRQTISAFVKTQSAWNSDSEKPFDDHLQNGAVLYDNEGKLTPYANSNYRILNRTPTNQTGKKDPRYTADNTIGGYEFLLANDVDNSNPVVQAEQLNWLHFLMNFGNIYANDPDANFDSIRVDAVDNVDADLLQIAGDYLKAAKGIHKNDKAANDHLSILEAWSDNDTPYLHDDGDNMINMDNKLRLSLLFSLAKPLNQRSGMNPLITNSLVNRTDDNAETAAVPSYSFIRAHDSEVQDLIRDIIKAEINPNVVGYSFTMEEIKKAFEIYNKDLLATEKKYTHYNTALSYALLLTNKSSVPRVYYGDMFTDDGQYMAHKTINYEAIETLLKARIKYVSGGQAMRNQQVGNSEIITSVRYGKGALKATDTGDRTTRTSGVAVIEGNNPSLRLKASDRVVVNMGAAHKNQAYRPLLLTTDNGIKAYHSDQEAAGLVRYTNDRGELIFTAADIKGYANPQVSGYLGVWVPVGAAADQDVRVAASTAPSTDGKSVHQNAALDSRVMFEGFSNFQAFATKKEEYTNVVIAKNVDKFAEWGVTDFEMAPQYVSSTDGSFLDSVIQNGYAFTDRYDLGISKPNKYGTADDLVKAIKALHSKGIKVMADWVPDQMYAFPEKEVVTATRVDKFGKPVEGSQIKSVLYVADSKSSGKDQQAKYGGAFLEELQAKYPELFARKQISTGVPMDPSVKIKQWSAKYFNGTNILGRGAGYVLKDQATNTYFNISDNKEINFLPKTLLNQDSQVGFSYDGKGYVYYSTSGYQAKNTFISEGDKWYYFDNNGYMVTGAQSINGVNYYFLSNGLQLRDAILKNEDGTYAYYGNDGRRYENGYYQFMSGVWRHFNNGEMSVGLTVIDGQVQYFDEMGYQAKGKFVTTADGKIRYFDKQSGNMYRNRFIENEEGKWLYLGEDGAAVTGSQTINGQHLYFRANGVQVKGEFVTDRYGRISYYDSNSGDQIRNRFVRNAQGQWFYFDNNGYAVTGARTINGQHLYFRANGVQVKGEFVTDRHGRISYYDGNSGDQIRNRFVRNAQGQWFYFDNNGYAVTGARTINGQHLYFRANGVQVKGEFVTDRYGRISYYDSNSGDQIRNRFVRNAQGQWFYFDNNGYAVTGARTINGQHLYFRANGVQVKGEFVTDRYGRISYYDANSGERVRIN
Assay [3] addresses T2, GtfB. The assay is described as follows: Binding study (Octet, details in supplement); weak inactive analog. Also noted: catalytic domain, residues 268 aa–1074 aa. In general terms: BLI is a label-free optical method that tracks binding on a fibre tip over time.
Target sequence in this assay (P08987 268-1074): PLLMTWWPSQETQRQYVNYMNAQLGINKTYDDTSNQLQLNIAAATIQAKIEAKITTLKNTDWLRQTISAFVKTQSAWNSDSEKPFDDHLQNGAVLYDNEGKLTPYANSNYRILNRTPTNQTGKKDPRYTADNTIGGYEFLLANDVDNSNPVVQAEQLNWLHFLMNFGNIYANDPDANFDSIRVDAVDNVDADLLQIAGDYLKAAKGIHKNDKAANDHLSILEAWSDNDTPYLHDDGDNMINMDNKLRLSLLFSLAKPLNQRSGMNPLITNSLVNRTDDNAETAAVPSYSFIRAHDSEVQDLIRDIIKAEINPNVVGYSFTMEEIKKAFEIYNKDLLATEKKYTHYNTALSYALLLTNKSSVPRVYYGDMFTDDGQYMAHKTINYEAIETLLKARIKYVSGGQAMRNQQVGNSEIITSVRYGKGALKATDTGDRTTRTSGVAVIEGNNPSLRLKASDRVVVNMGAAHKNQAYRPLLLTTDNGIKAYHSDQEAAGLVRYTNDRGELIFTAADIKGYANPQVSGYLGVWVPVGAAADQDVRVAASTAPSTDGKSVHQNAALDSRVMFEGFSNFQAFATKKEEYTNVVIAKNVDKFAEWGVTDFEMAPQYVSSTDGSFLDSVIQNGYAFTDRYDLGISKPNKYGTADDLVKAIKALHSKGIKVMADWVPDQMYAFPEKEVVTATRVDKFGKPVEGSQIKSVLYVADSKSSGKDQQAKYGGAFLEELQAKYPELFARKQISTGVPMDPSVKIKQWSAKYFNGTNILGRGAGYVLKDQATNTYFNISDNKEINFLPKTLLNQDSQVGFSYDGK
The target of assay [4] is T1, GtfC. The assay can be described thus: Bio-layer interferometry (OctetRed96), […] binding model; supported by zymographic inhibition ([…] at […]). Also noted: his-tagged catalytic domain, residues 295 aa–1103 aa.
Target sequence in this assay (P13470 295-1103): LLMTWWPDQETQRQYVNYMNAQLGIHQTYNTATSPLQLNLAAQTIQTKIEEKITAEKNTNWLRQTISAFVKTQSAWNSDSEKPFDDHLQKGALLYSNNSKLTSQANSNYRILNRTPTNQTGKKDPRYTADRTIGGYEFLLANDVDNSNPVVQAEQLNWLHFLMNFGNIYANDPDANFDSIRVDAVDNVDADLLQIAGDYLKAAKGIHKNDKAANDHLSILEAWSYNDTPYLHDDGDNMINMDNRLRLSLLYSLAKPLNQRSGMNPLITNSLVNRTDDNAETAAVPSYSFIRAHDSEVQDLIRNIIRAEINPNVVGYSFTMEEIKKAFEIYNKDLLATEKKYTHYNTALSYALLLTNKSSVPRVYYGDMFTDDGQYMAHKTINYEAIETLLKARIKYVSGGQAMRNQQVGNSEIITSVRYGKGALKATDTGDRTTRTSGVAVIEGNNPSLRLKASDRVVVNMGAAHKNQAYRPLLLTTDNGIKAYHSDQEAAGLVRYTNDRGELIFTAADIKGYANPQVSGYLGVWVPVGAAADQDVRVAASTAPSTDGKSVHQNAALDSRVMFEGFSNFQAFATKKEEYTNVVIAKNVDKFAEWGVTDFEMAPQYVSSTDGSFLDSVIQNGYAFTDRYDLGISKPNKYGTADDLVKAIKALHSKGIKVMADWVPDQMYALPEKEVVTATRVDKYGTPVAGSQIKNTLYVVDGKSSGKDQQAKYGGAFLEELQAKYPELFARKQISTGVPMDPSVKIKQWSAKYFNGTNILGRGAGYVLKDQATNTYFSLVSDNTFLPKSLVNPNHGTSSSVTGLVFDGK
The target of assay [5] is T2, GtfB. Described as above. More on the design: his-tagged catalytic domain, residues 268 aa–1074 aa.
Target sequence in this assay (P08987 268-1074): as the sequence (P08987 268-1074) above

The term inhibition denotes the relative decrease from the control value, in per cent. A word on the Kd: it is the constant that tells how readily two partners part at equilibrium. A lower Kd goes with tighter binding.

SMILES strings stand for the structures.

Turning to `O=C(c1ccc(F)cc1)c1ccc(-c2[nH]c(-c3ccc([N+](=O)[O-])cc3O)nc2-c2ccccc2)cc1` [#G16], the inhibition at 25 µM at GtfC [1] was roughly 70%; at GtfB [2], roughly 60%.

Consider `O=C(Nc1ccccc1)c1cc2cc([N+](=O)[O-])ccc2s1` [#G43-D], for which the Kd at GtfB [3] is 68 µM.

As to `NC(=O)c1ccccc1NC(=O)c1cc2cc([N+](=O)[O-])ccc2s1` [#G43], the results for the Kd at GtfC [4] and at GtfB [5] were 0.0469 µM and 3.7 µM, respectively.
